From US20060148692A1, “Novel protein and its dna” (priority 2003, published 2006)

Assays:
GeneBank No. 170665 [1] = test: Gene expression analysis (oligonucleotide microarray) in rat primary nerve cells under endoplasmic reticulum stress; type: cell-based; settings: standardized with the median (=1)
Protocol: Rat primary nerve cells prepared from TP-17 CD rats (Nippon Charles River) were suspended in B27-containing neurobasal medium (NB medium, GIBCO), then put at a density of 250,000 cells/well in a type I collagen-coated 24-well plate (SUMILON), and cultured for 3 days. (i) Tunicamycin (Tnc) was added at a final concentration of 100 nM to the cultured cells, (ii) thapsigargin (Thap) was added at a final concentration of 2 nM to the cultured cells, or (iii) after the medium was exchanged twice with glucose-free B27-containing DMEM medium, 2-deoxyglucose (2DG) was added at a concentration of 3 mM to the cultured cells. After 4, 8, and 24 hours, total RNA was extracted from the respective cells by using RNeasy Mini Kit (Qiagen) according to its instructions. As the control, the cells to which each medium was added in place of the above chemicals (Tnc, Thap and 2DG) (cells to which no chemical was added) were used. These were used as the material to conduct gene expression analysis using an oligonucleotide microarray (Rat Genome U34A, Affymetrix).
The experimental method was in accordance with instructions of Affymetrix (Expression analysis technical manual). As a result of comparison of gene expression profiles of the cells stimulated with each chemical and the cells to which no chemical was added, the expression of GeneBank No. 170665 was promoted by endoplasmic reticulum stress stimulation [the above (i), (ii) and (iii)] (Table 1).

GeneBank No. 170665 [2] = test: Gene expression analysis (oligonucleotide microarray) in rat primary nerve cells stimulated with β-amyloid; type: cell-based; settings: β-amyloid 25 nM, standardized with the median (=1)
Protocol: For the purpose of examining whether the expression of GeneBank No. 170665 whose expression was promoted by endoplasmic reticulum stress was influenced by β-amyloid stimulation, gene expression analysis was conducted using the cells stimulated with β-amyloid in the same manner as in Example 1.
Rat primary nerve cells prepared in the same manner as in Example 1 were suspended in N2-containing DMEM medium (GIBCO), then put at a density of 250,000 cells/well and cultured for 4 days. After culture, β-amyloid suspended at a final concentration of 25 nM in the above medium was added to the cells. After 4, 8, and 24 hours, total RNA was extracted from the cells and gene analysis was conducted in the same manner as in Example 1. As the control, the cells to which the above medium was added in place of β-amyloid were used. The expression of GeneBank No. 170665 was promoted in the cells stimulated with β-amyloid, as compared with the control (Table 2).

SK-N-AS cells = test: DNA cleavage accompanying tunicamycin-induced cell-death (CELL DEATH DETECTION ELISA PLUS) in transformed cells; type: cell-based, human; settings: SK-N-AS cells transformed with the C1 gene vs pcDNA3.1 control cells; tunicamycin for 1 or 2 days
Protocol: A plasmid comprising the nucleotide sequence represented by SEQ ID NO:2 was designated C1-pcDNA3.1/V5-His TOPO, and a transformant having the plasmid was designated Escherichia coli DH5α/C1-pcDNA3.1N5-His TOPO. This transformant was cultured in LB medium, and the vector was recovered by using QUAGEN plasmid midi kit (Qiagen). This C1 gene expression vector was transformed into SK-N-AS cells by using Nucleofector (AMAXA). As the control, pcDNA3.1 (Invitrogen) was transformed into SK-N-AS cells.
The respective transformed cells were put at a density of 7500 cells/well in a type I collagen-coated 96-well plate (IWAKI) and then cultured overnight, and after tunicamycin was added at various concentrations, the cells were cultured for 1 or 2 days to induce cell-death. After culture, DNA cleavage accompanying cell-death was detected by using CELL DEATH DETECTION ELISA^PLUS kit (Roche). The experimental method was in accordance with instructions attached to the kit.

IMR-32 cells = test: Aβ40 and Aβ42 concentration in culture supernatant of transformed cells by ELISA; type: cell-based; settings: IMR-32 cells transformed with C1 vs GFP control cells; 24 hours after medium exchange
Protocol: The C1 gene expression vector described in Example 4 was transformed into IMR-32 cells by using Nucleofector (AMAXA). As the control, a GFP gene expression vector (Wako) was transformed into other IMR-32 cells. The respective transformed cells were put at a density of 1,000,000 cells/well in a type I collagen-coated 24-well plate (IWAKI) and cultured for 16 hours. After the medium was exchanged with a new one, the cells were cultured for additional 24 hours, and the concentrations of Aβ40 and Aβ42 in the culture supernatant were measured respectively by ELISA (Biochemistry 34, 10272-10278, 1995).

Molecule: tunicamycin
- Gene expression level (GeneBank No. 170665 [1]; tunicamycin 100 nM, after 4 hours): 3.00
- Gene expression level (GeneBank No. 170665 [1]; tunicamycin 100 nM, after 8 hours): 2.81
- Gene expression level (GeneBank No. 170665 [1]; tunicamycin 100 nM, after 24 hours): 3.63

Molecule: C/C=C(/C)C(=O)O[C@H]1C(C)=C2[C@H]([C@@H]1OC(=O)CCCCCCC)[C@@](C)(OC(C)=O)C[C@H](OC(=O)CCC)[C@@]1(O)[C@H]2OC(=O)[C@@]1(C)O [thapsigargin]
- Gene expression level (GeneBank No. 170665 [1]; thapsigargin 2 nM, after 4 hours): 8.77
- Gene expression level (GeneBank No. 170665 [1]; thapsigargin 2 nM, after 8 hours): 9.65
- Gene expression level (GeneBank No. 170665 [1]; thapsigargin 2 nM, after 24 hours): 7.56

Molecule: O=CC[C@@H](O)[C@H](O)[C@H](O)CO [2DG, 2-deoxyglucose]
- Gene expression level (GeneBank No. 170665 [1]; 2DG 3 mM in glucose-free DMEM medium, after 4 hours): 16.71
- Gene expression level (GeneBank No. 170665 [1]; 2DG 3 mM in glucose-free DMEM medium, after 8 hours): 15.11
- Gene expression level (GeneBank No. 170665 [1]; 2DG 3 mM in glucose-free DMEM medium, after 24 hours): 14.55

Molecule: β-amyloid
- Gene expression level (GeneBank No. 170665 [2]; after 4 hours): 3.44
- Gene expression level (GeneBank No. 170665 [2]; after 8 hours): 6.99
- Gene expression level (GeneBank No. 170665 [2]; after 24 hours): 4.40

B1: C1: 264-amino-acid protein (SEQ ID NO: 1) encoded by SEQ ID NO:2; tested by transforming cells with C1 gene expression vector (protein, listed as Homo sapiens)
chain: MGGAQLELPSGARPGVCVRRSFRAHAGDQPRRPPGPIPVPGTMKQESAAPNTPPTSQSPTPSAQFPRNDGDPQALWIFGYGSLVWRPDFAYSDSRVGFVRGYSRRFWQGDTFHRGSDKMPGRVVTLLEDHEGCTWGVAYQVQGEQVSKALKYLNVREAVLGGYDTKEVTFYPQDAPDQPLKALAYVATPQNPGYLGPAPEEAIATQILACRGFSGHNLEYLLRLADFMQLCGPQAQDEHLAAIVDAVGTMLPCFCPTEQALALV
- DNA cleavage (cell-death) (SK-N-AS cells): promoted
- Aβ40 concentration in culture supernatant (IMR-32 cells): reduced
- Aβ42 concentration in culture supernatant (IMR-32 cells): reduced
